One series relates to Oct-1. It counts as cell-based. As to conditions: 25 μg/ml, 2 hours.
Series [1] concerns NF-κB. It counts as cell-based, human.
A further series relates to AP-1. It counts as cell-based. As to conditions: 25 μg/ml, 2 hours.
The subject of series [2] is p65. It counts as cell-based, human.
In series [3] the test system is IκBa. It counts as cell-based, human.
A further series deals with TFII D. It counts as cell-based. The following applies: 25 μg/ml, 2 hours.
Series [4] has as its system NF-κB. It counts as biochemical, human.
Series [5] in a line: in vitro. As to conditions: human, u937 cells.
Series [6] has as its system NF-κB. It counts as cell-based, human. The source holds these as a separate data set.
The test system of series [7] is NF-κB. It counts as cell-based, human. The source holds these as a separate data set.
Series [8] concerns NF-κB. It counts as biochemical.
A short description of series [9]: in vitro.
Series [10] deals with NF-κB. It counts as cell-based.
For another series, the system named is c-Rel. It counts as cell-based.
Another series relates to p50. It counts as cell-based.
Series [11] concerns p65. It counts as cell-based, human. This is another data set of the same source.
Series [12] has as its system IκBa. It counts as cell-based, human. This is another data set of the same source.
Series [13] concerns NF-κB. It counts as cell-based, human. The source holds these as a separate data set.
Series [14] concerns IκBa promoter linked to the CAT gene. It counts as cell-based.
Series [15] deals with NF-κB. It counts as cell-based, human. The source holds these as a separate data set.
The test system of series [16] is NF-κB. It counts as cell-based. The source holds these as a separate data set.

In general, viability refers to the share of living cells, or the viability signal relative to a control.

Where two headings read alike, the source gives them in different places. Some results are limits rather than exact numbers.

Regarding `O=C(/C=C/c1ccc(O)c(O)c1)OCCc1ccccc1` [CAPE, caffeic acid (3,4-dihydroxy cinnamic acid) phenethyl ester], the “DNA-binding ability of Oct-1” value in the series on Oct-1 is “did not inhibit”. For the same compound, in the series with NF-κB [1], the “activation of NF-κB induced by H2O2” value is given as “completely blocked”, the “activation of NF-κB induced by ceramide” value was “completely blocked”, the “activation of NF-κB induced by okadaic acid” value is “completely blocked” and the “activation of NF-κB induced by phorbol myristate acetate” value is listed as “completely blocked”. The “DNA-binding ability of AP-1” value in the series with AP-1 is listed as “did not inhibit”. Further, in the series with p65 [2], the “TNF-induced appearance of p65 in the nucleus” value is recorded as “blocked” and the “cytoplasmic pool of p65” value is “none of the treatments altered significantly”. In the series with IκBa [3], the “TNF-induced rate of degradation of IκBa” value is “did not affect significantly”; the “cytoplasmic pool of IκBa, substance alone” value is “no effect”; the “resynthesis of IκBa after TNF” value is on record as “did delay its resynthesis”. For the same compound, the “DNA-binding ability of TFII D” value in the series with TFII D is recorded as “did not inhibit”. For the same compound, in the series on NF-κB [4], the “binding of NF-κB to DNA, deoxycholate-treated cytoplasmic extracts” value is “interfered with the binding of NF-κB proteins to DNA” and the “binding of NF-κB to DNA, nuclear extracts from TNF-preactivated cells” value was “prevented NF-κB from binding to DNA”. Besides, the viability in “in vitro [5]” was > 98%. For the same compound, in the series with NF-κB [6], the “CAPE-induced inhibition of NF-κB activation in the presence of reducing agents” value is “reversed completely”, the “activation of NF-κB by the substance alone” value is listed as “No activation”, the “concentration with maximum effect on TNF-dependent activation of NF-κB” value was 25 µg/mL and the “inhibition of TNF-dependent activation of NF-κB” value was “inhibited the TNF-dependent activation of NF-κB in a dose-dependent manner”. For the same compound, in the series on NF-κB [6], the “kinetics of inhibition of TNF response: cotreatment with TNF” value is recorded as “not effective” and the “kinetics of inhibition of TNF response: pretreatment” value is “inhibited only when the cells were pretreated”.

For the compound `COc1cc(CNC(=O)CCCCC=CC(C)C)ccc1O` [capsaicin, 8-methyl-N-vanillyl-6-nonenamid], in the series on NF-κB [7], the “NF-κB activation mediated through okadaic acid” value is on record as “inhibited only partially” and the “phorbol myristate acetate-induced activation of NF-κB” value is given as “completely blocked”. Also, in the series with NF-κB [8], the “ability of NF-κB to bind to the DNA, deoxycholate-treated cytoplasmic extracts from capsaicin-exposed cells” value was “did not modify” and the “ability of NF-κB to bind to the DNA, nuclear extracts exposed to capsaicin after TNF treatment” value is given as “did not modify”. Further, in the series “in vitro [9]”, the viability at 2 h, 100 µM amounted to 99%; the viability at 2 h, 200 µM was 98%; the viability at 2 h, 300 µM turned out to be 95%. Besides, in the series with NF-κB [10], the “concentration with almost complete inhibition of TNF-induced NF-κB” value is 200 µM. Besides, in the series with c-Rel, the “level of c-Rel protein in cytosolic fraction” value is given as “neither capsaicin by itself or in combination with TNF had any effect”. Also, the “level of p50 protein in cytosolic fraction” value in the series on p50 is reported as “neither capsaicin by itself or in combination with TNF had any effect”. In the series with p65 [11], the “TNF-induced migration of p65 into the nucleus” value is reported as “did block the TNF-induced migration”; the “level of cytoplasmic p65, capsaicin alone” value is given as “remained unaffected”; the “migration of p65 protein into the nucleus, capsaicin by itself” value is recorded as “did not induce this migration”. Moreover, in the series on IκBa [12], the “TNF-mediated degradation of IκBa” value is “abolished”; the “appearance of TNF-mediated slower-migrating band of IκBa” value is recorded as “abolished”; the “level of cytoplasmic IκBa, capsaicin alone” value was “remained unaffected”. Besides, the “concentration with almost complete inhibition of TNF-induced NF-κB” value with NF-κB [13] came to 200 µM. The “TNF-enhanced CAT activity, pIκBCAT-transfected cells” value in series [14] is on record as “reduced significantly”. Further, in the series on NF-κB [15], the “NF-κB activation on co-incubation with TNF” value is on record as “did not block NF-κB activation”, the “activation of NF-κB by 10 nM TNF” value is “completely inhibited”, the “activation of NF-κB by the substance itself” value is “did not activate NF-κB” and the “concentration that inhibited most of the activation induced by TNF” value lay within 200 to 300 µM. The “pre-incubation time for maximum inhibition of the response to TNF” value in the series on NF-κB [15] worked out at 120 min.

As to `O=C(C=Cc1cc(O)ccc1O)OCCc1ccccc1` [compound 1], in the series on NF-κB [6], the “activity in inhibiting NF-κB activation relative to CAPE” value is reported as “as active as CAPE” and the “effect of CAPE analogues on TNF-induced NF-κB activation” value (from here on “effect of CAPE analogues”) is listed as “increased the potency of inhibition”.

For the compound `COc1ccc(C=CC(=O)OCCc2ccccc2)cc1OC` [compound 2], the “activity in inhibiting NF-κB activation relative to CAPE” value with NF-κB [6] is “less active than CAPE”.

On to `O=C(C=Cc1ccc(O)c(O)c1O)OCCc1ccccc1` [compound 3], for which, in the series with NF-κB [6], the “activity in inhibiting NF-κB activation relative to CAPE” value was “less active than CAPE” and the “effect of CAPE analogues” value is reported as “loss of potency”.

`O=C(C=Cc1ccc(O)c(O)c1)OCCCc1ccccc1` [compound 4]: in the series on NF-κB [6], the “activity in inhibiting NF-κB activation relative to CAPE” value is reported as “less active than CAPE” and the “effect of CAPE analogues” value is recorded as “significant loss of inhibition”.

In the case of `C=C(C)[C@]12C[C@@H](C)[C@@]34O[C@](Cc5ccccc5)(O[C@@H]1[C@@H]3C=C(COC(=O)Cc1ccc(O)c(OC)c1)C[C@]1(O)C(=O)C(C)=C[C@@H]41)O2` [resiniferatoxin], in the series on NF-κB [16], the “TNF-mediated activation of NF-κB” value is given as “completely inhibited”, the “activation of NF-κB by the substance itself” value is “did not activate NF-κB”, the “concentration sufficient for maximum inhibition of the TNF response” value worked out at 40 µM and the “potency relative to capsaicin” value is reported as “approximately 8 fold”.

The values above are taken from patent US5981583A (priority 1997, dated 1999).
